For assay [1], the target named is T1, UGT1A10 (Homo sapiens, UniProt Q9HAW8).
T1 sequence (Q9HAW8 26-530): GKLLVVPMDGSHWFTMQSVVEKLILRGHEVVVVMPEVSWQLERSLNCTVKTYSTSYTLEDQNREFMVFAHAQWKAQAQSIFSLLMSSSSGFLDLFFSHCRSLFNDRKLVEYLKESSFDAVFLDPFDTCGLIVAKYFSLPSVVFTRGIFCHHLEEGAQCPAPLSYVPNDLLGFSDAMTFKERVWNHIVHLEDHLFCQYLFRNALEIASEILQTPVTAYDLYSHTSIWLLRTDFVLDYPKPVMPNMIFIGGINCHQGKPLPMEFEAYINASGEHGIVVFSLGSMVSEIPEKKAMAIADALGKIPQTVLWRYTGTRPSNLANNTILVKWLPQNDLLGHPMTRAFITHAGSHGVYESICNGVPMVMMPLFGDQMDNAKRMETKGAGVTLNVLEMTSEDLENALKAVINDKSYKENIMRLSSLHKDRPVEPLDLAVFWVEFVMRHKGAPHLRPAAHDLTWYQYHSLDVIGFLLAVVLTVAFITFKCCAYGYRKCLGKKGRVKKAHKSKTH
As to the kind of experiment: glucuronidation rate at […]. It counts as cell-based.

Assay [2] deals with T1, UGT1A10. Kind of assay: glucuronidation rate at […]. It counts as cell-based. The source holds these as a separate data set.

`Oc1cccc2ccccc12` [1-naphthol]: on UGT1A10 [1], the “glucuronidation rate at 100 μM (HPLC)” value is on record as “F93L catalyzed 1-naphthol glucuronidation at about twice the rate of the control UGT1A10”. Regarding `COc1cc2ccc(=O)oc2cc1O` [scopoletin], the “glucuronidation rate at 500 μM (HPLC)” value at UGT1A10 [2] was “majority of the mutants were higher than control, up to six fold the (normalized) rate of UGT1A10”.

The values are drawn from paper PMC3188330 (2011).
